Measurements published in patent US10875834B2, “Prodrug and protected forms of 5-hydroxymethylfurfuranal (5-HMF) and its derivatives” (VIRGINIA COMMONWEALTH UNIVERSITY, priority 2016, dated 2020).
Several values for one entry are separate records, joined by “and”; a condition that tells them apart may be missing. Equal entries are not always repeated. Entries after “also recorded” stand apart in the source; their conditions may differ. Where two headings read alike, the source gives them in different places.

Tests used:
sickle Hb (Hb S) = target: T1, sickle Hb (Hb S) (Homo sapiens, UniProt P69905); test: Hb adduct formation study (Hb S modification) with SS cells, cation-exchange HPLC; format: cell-based; settings: for Modified Hb (%): 2 mM test compound, SS cells suspensions (20% hematocrit), mean ± SD, three experiments; for Hb modification relative to 5-HMF: 1, 2 and 5 mM
T1 construct: from tissue; host or cells: blood (red cells) of a subject with homozygous sickle cell disease; hemolysate analysed
From the text: (§1) The twelve compounds, VZHE004, VZHE006, VZHE007, VZHE005, VZHE011, VZHE013, VZHE014, VZHE015, VZHE016, 5-PMFC, 5-CMFC, 5-NMFC, and the parent compound (positive control) 5-HMF were investigated for their abilities to prevent hypoxia-induced RBC sickling (RBC morphology study), increase sickle Hb oxygen affinity (oxygen equilibrium curve; OEC study), and modify sickle Hb (adduct formation study) as previously published (Abdulmalik et al., Br. J Haematol., 2005, 128, 552; Safo et al, J. Med. Chem, 2004, 47, 4665). Briefly, blood suspensions from a subject with homozygous SCD (hematocrit: 20%) were incubated under air in the absence or presence of 1, 2 and 5 mM concentration of test compounds at 37° C. for 1 hr to ensure that binding had attained equilibrium. Following, the suspensions were incubated under hypoxic condition (4% oxygen/96% nitrogen) at 37° C. for 2 hr. Aliquot samples were fixed with 2% glutaraldehyde solution without exposure to air, and then subjected to microscopic morphological analysis. The residual samples were washed in phosphate-buffered saline, and hemolyzed in hypotonic lysis buffer for subsequent analyses.
(§2) For the OEC study, approximately 100 μl aliquot samples from clarified lysate obtained from the antisickling study were added to 4 ml of 0.1M potassium phosphate buffer, pH 7.0, in a cuvette and subjected to hemoximetry analysis using Hemox™ Analyzer (TCS Scientific Corp.) to assess P50 shifts. Finally, for the Hb adduct formation study, clarified lysates, also from the above antisickling study, were subjected to cation-exchange HPLC (Hitachi D-7000 Series, Hitachi Instruments, Inc., San Jose, Calif.), using a weak cation-exchange column (Poly CAT A: 30 mm×4.6 mm, Poly LC, Inc., Columbia, Md.).

[1] = target: T2, sickle Hb oxygen affinity (Homo sapiens, UniProt P69905); test: Oxygen equilibrium curve (OEC) study, P50 shift of hemolysate from SS cells; format: cell-based; settings: for AP50 (%): 2 mM test compound, hemolysate of SS cells, mean ± SD, three experiments; for P50 shift relative to 5-HMF: 1, 2 and 5 mM
T2 construct: from tissue; host or cells: blood (red cells) of a subject with homozygous sickle cell disease; hemolysate analysed
From the text: as §1, §2

[2] = test system: homozygous sickle red blood cells (SS cells); test: Antisickling (RBC morphology) study under hypoxia; format: cell-based, human
From the text: as §1

[3] = both in-vitro and in-vivo; cited from earlier work
sickle cell disease = settings: phase I/II human clinical studies; cited from earlier work
Hb = Hb (Homo sapiens, UniProt P69905); test: Incubation of Hb with VZHE004 for three days, UPLC-MS analysis; format: in vitro ADME; settings: incubated with Hb for three days
From the text: The overall tetrameric structure is indistinguishable (rmsd ˜0.4 Å) from 1BBB or the R2 structure in complex with 5-HMF (PDB code 1QXE). Like 5-HMF we also observed a pair of VZHE004 molecules covalently bound to the N-terminal αVal1 amines (Schiff-base interaction) in a symmetry-related fashion at the α-cleft (FIG. 7). The electron density of VZHE004 was relatively weak especially at the methyl acetate position. As such, the compound was refined as 5-HMF at the α1Val1 site, while the full VZHE004 was modelled at the α2Val1 binding site but with the methyl acetate refined in two alternate conformations (FIG. 7a). However, to make sure that the disorder is not due to partial hydrolytic cleavage of the ester, Hb and VZHE004 were incubated for three days.

Hb A = target: T3, Hb A (Homo sapiens, UniProt P69905); test: Time-dependent adduct formation study in normal whole blood; format: in vitro ADME; settings: 2 mM, up to 24 hr
T3 construct: time-dependent studies on Hb adduct formation using normal whole blood; from tissue; host or cells: normal human whole blood (30% hct)
Procedure: The compounds, VZHE004, VZHE006, VZHE007, VZHE005, VZHE011, VZHE013, VZHE014, VZHE015, VZHE016, 5-PMFC, 5-NMFC, and the control 5-HMF were used to conduct time-dependent studies on Hb adduct formation using normal whole blood. The study was performed in a 96-well deepwell (Thermo Scientific) plate, where each compound at 2 mM concentration was added to 600 μL of whole blood (30% hct) and incubated at 37° C. for 24 hr with shaking (at 140 rpm). At 0.5 hr, 1 hr, 2 hr, 4 hr, 6 hr, 8 hr and 24 hr time intervals, 75 μL aliquot of blood was removed from each well using a multichannel pipette and added to respective tubes containing 75 μL of Na cyanoborohydride and borohydride mix (1:1 v/v 50 mM stock) to terminate the Schiff-base reaction, fix the Schiff-base adducts and reduce the reduce free reactive aldehyde (Davies et al., Food Chem. Toxicol. 2009, 47, 1950). We have previously optimized these conditions. After mixing, the tubes were stored immediately at −80° C. until ready for analysis to determine Hb adduct formation using cation-exchange HPLC (Hitachi D-7000 Series, Hitachi Instruments, Inc., San Jose, Calif.).

[4] = Homo sapiens, Erythrocyte, 2 mM test compound, SS cells 20% hematocrit, hypoxia 4% oxygen/96% nitrogen, mean ± SD, read-out: Inhibition of Sickling (%)
[5] = Homo sapiens, Erythrocyte, 2 mM, read-out: RBC sickling inhibition
[6] = Homo sapiens, Erythrocyte, 5 mM, read-out: RBC sickling inhibition
[7] = 2 mM test compound, SS cells 20% hematocrit, hypoxia 4% oxygen/96% nitrogen, mean ± SD

T1 sequence (P69905 2-142 limits assumed): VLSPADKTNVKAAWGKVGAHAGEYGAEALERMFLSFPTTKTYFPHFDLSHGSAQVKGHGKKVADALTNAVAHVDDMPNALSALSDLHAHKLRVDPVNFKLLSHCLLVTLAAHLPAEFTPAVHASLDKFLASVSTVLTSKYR
T2 sequence (P69905 2-142 limits assumed): as above
T3 sequence (P69905 2-142 limits assumed): as above
T3 sequence (P68871 2-147 partner limits assumed): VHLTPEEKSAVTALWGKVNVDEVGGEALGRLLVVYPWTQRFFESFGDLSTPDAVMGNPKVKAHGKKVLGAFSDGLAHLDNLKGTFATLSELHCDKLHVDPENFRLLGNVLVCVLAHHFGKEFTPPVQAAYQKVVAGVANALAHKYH
Chain of Hb (P69905 2-142 limits assumed): as the sequence (P69905 2-142 limits assumed) above
Chain of Hb (P68871 2-147 partner limits assumed): as the sequence (P68871 2-147 partner limits assumed) above

Row | Structure (SMILES) | Modified Hb (%) (sickle Hb (Hb S)) | AP50 (%) [1] [%] | inhibition at 2000 µM [2, 4] [%] | inhibition at 2000 µM [2, 5] [%] | inhibition at 5000 µM [2, 6] [%] | P50 shift relative to 5-HMF [1] | antisickling effect ([2]; over 1, 2 and 5 mM) | other results
1 | O=Cc1ccc(CO)o1 [Compound 5-HMF, 5-hydroxymethyl-2-furfural, reference compound] | 32.8 ± 1.6 | 33.4 ± 0.9 | 25.7 ± 4.4 | 26 |  |  |  | RBC sickling inhibition ([2]; 2 mM): ~23% and ~26%; half-life in plasma [3]: 1 to 1.5 h; effective dose (sickle cell disease): 2-4 gm
2 | CC(=O)OCc1ccc(C=O)o1 [VZHE004, (5-formylfuran-2-yl)methyl acetate] | 43.5 ± 8.4 | 44.6 ± 11.9 | 26.3 ± 4.4 |  | 60 |  |  | RBC sickling inhibition ([2]; 5 mM): ~60%; stability of the ester against hydrolytic cleavage (UPLC-MS) (Hb): intact
3 | CC(C)(C)OCc1ccc(C=O)o1 [VZHE013, 5-(tert-Butoxymethyl)furan-2-carbaldehyde] | 15.7 ± 4.3 | 24.0 ± 5.6 | 7.4 ± 6.9 |  |  | weaker | very little antisickling activity; also recorded: barely showed any antisickling activity; also recorded: poor antisickling effects | Hb modification relative to 5-HMF (sickle Hb (Hb S)): weaker adduct formation; % P50 shift ([1]; 1 mM): 16%; % P50 shift ([1]; 2 mM): 24%; % P50 shift ([1]; 5 mM): 46%; sickling inhibition (antisickling effect) ([2]; at all three concentrations (1, 2 and 5 mM)): less than 5%
4 | CCOCc1ccc(C=O)o1 [VZHE011, 5-(Ethoxymethyl)-2-furan Carboxadehyde] | 40.4 ± 3.9 | 39.8 ± 0.8 | 58.8 ± 7 | 35 to 95 |  |  |  | antisickling effect ([2]; 2 mM): superior
5 | O=Cc1ccc(COc2ccccc2)o1 [Compound 5-PMFC, 5-(phenoxymethyl)-2-furan carbaldehyde] | 60.53 ± 5.3 | 45.4 ± 14.6 | 94.7 ± 0.1 |  |  | better P50 sift than 5-HMF |  | Hb modification relative to 5-HMF (sickle Hb (Hb S)): superior Hb modification; RBC sickling inhibition ([2]; 2 mM): ~95%; antisickling effect ([2]; 2 mM): attained maximum effect; inhibition at 1000 µM ([2]; Homo sapiens, Erythrocyte, 1 mM, read-out: RBC sickling inhibition): ~17%; metabolic profile / decline of Hb adduct in whole blood (Hb A): exhibit some resistance to metabolism
6 | COP(=O)(OC)OCc1ccc(C=O)o1 [VZHE014, (5-Formylfuran-2-yl)methyl Dimethyl Phosphate] | 19.7 ± 6.3 | 35.7 ± 8.1 |  |  |  |  | poor antisickling effects | Inhibition of Sickling (%) [2, 7]: 8.4 ± 5.9%; RBC sickling inhibition ([2]; 5 mM): 43% and ~40%
7 | O=Cc1ccc(COC(=O)c2ccccc2)o1 [VZHE007, (5-Formylfuran-2-yl)methyl Benzoate] | 44.5 ± 6.0 | 38.9 ± 11.9 | 10 ± 5.9 |  | ~83 |  | poor antisickling effects | 
8 | CC(C)(C)OC(=O)OCc1ccc(C=O)o1 [VZHE006, tert-Butyl ((5-formylfuran-2-yl)methyl) carbonate] | 50.0 ± 3.0 | 44.8 ± 12.9 | 71.6 ± 0.1 | 35 to 95 | > 95 |  |  | 
9 | CCCOCc1ccc(C=O)o1 [VZHE015, 5-(Propoxymethyl)-2-furan Carboxadehyde] | 39.7 ± 8.2 | 44.0 ± 9.7 | 62.9 ± 6.2 | 35 to 95 |  |  |  | antisickling effect ([2]; 2 mM): superior
10 | O=Cc1ccc(COc2ccc(Cl)cc2)o1 [Compound 5-CMFC, 5-((4-chlorophenoxy)methyl)-2-furan carbaldehyde] | 26.7 ± 6.5 | 13.2 ± 5.2 | 2 ± 1.9 | < 10 |  | significantly less P50 shift than 5-HMF; also recorded: lower degrees of shift than 5-HMF | barely showed any antisickling activity; also recorded: poor antisickling effects | antisickling effect ([2]; 5 mM): barely showed any antisickling effect
11 | CC(C)OCc1ccc(C=O)o1 [VZHE016, 5-(isopropoxymethyl)-2-furan Carboxadehyde] | 36.4 ± 9.7 | 38.4 ± 10.4 |  |  |  |  |  | RBC sickling inhibition ([2]; 2 mM): ~16%; Inhibition of Sickling (%) [2, 7]: 22.5 ± 8.8%
12 | O=Cc1ccc(COc2ccccc2[N+](=O)[O-])o1 [Compound 5-NMFC, 5-((2-nitrophenoxy)methyl)-2-furan carbaldehyde] | 40.5 ± 17.6 | 13.4 ± 5.7 | 10.3 ± 0.5 | < 10 | < 10 | significantly less P50 shift than 5-HMF; also recorded: lower degrees of shift than 5-HMF | barely showed any antisickling activity; also recorded: poor antisickling effects | Hb modification relative to 5-HMF (sickle Hb (Hb S)): superior Hb modification; antisickling effect ([2]; 5 mM): barely showed any antisickling effect; metabolic profile / decline of Hb adduct in whole blood (Hb A): exhibit some resistance to metabolism
